According to patent US11497212B2, “Substituted thiophenyl uracils, salts thereof and the use thereof as herbicidal agents” (Syngenta Crop Protection AG, priority 2017, dated 2022):

Key:
Format in all cases: in vivo
[1] = tested on: Viola tricolor; test: Herbicidal action post-emergence (greenhouse pot trial)
In short: (§1)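 Sowing in sandy loam, then 2–3 weeks of controlled greenhouse growth. Next, one-leaf-stage plants received a foliar spray of the WP- or EC-formulated compound with 0.5% additive (600 L/ha water, application rate of 80 g/ha or below). Finally, after about 3 weeks under optimal conditions, effect was judged by eye against controls.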

[2] = tested on: Matricaria inodora; test: as above; conditions: scored visually after about 3 weeks vs untreated controls
In short: as §1

[3] = tested on: Abutilon theophrasti; test: as above; conditions: scored visually after about 3 weeks vs untreated controls
In short: as §1

[4] = tested on: Setaria viridis; test: as above; conditions: scored visually after about 3 weeks vs untreated controls
In short: as §1

[5] = tested on: Polygonum convolvulus; test: as above; conditions: scored visually after about 3 weeks vs untreated controls
In short: as §1

[6] = tested on: Pharbitis purpurea; test: as above
In short: as §1

[7] = tested on: Amaranthus retroflexus; test: as above; conditions: scored visually after about 3 weeks vs untreated controls
In short: as §1

[8] = tested on: Veronica persica; test: as above
In short: as §1

[9] = tested on: Glycine max; test: Crop compatibility post-emergence (greenhouse pot trial)
In short: (§2)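 Greenhouse pot trial: sandy loam, sown seeds, treatment at one-leaf stage 2–3 wk after sowing. Spray: aqueous WP/EC preparation, 0.5% additive, 600 L/ha. Readout: visual % effect after ~3 wk relative to untreated plants.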

[10] = tested on: Triticum aestivum; test: as above
In short: as §2

[11] = tested on: Oryza sativa; test: as above; conditions: application rate 20 g/ha
In short: as §2

[12] = tested on: Zea mays; test: as above
In short: as §2

[13] = tested on: Echinochloa crus-galli; test: Herbicidal action pre-emergence (greenhouse pot trial); conditions: application rate 320 g/ha, scored after about 3 weeks
Description: (§3) Seeds of mono- and dicotyledonous weeds and crop plants were laid out in plastic or organic plant pots and covered with soil. The compounds of the invention formulated in the form of wettable powders (WP) or emulsion concentrates (EC) were then applied to the surface of the covering soil as an aqueous suspension or emulsion with addition of 0.5% additive at a water application rate equivalent to 600 L/ha. After the treatment, the pots were placed in a greenhouse and kept under good growth conditions for the test plants. After about 3 weeks, the efficacy of the preparations was scored visually as a percentage by comparison with untreated controls. For example, 100% efficacy=plants have died, 0% efficacy=like control plants. Tables B1 to B16 below show the efficacies of selected compounds of the general formula (I) according to tables I.1 to I.60 on various harmful plants and an application rate corresponding to 320 g/ha or lower that were obtained by the aforementioned trial method.

[14] = tested on: Viola tricolor; test: as above; conditions: application rate 320 g/ha, scored after about 3 weeks
Description: as §3

[15] = tested on: Matricaria inodora; test: as above; conditions: application rate 320 g/ha, scored after about 3 weeks
Description: as §3

[16] = tested on: Abutilon theophrasti; test: as above; conditions: application rate 320 g/ha, scored after about 3 weeks
Description: as §3

[17] = tested on: Setaria viridis; test: as above; conditions: application rate 320 g/ha, scored after about 3 weeks
Description: as §3

[18] = tested on: Avena fatua; test: as above; conditions: application rate 320 g/ha
Description: as §3

[19] = tested on: Stellaria media; test: as above; conditions: application rate 320 g/ha, scored after about 3 weeks
Description: as §3

[20] = tested on: Pharbitis purpurea; test: as above; conditions: application rate 320 g/ha
Description: as §3

[21] = tested on: Alopecurus myosuroides; test: as above; conditions: application rate 320 g/ha, scored after about 3 weeks
Description: as §3

[22] = tested on: Lolium rigidum; test: as above; conditions: application rate 320 g/ha
Description: as §3

[23] = tested on: Amaranthus retroflexus; test: as above; conditions: application rate 320 g/ha, scored after about 3 weeks
Description: as §3

[24] = tested on: Veronica persica; test: as above; conditions: application rate 320 g/ha
Description: as §3

[25] = tested on: Glycine max; test: Crop compatibility pre-emergence (greenhouse pot trial); conditions: application rate 80 g/ha, effect vs untreated controls
Description: as §3, with “plants.” for “plants. Tables B1 to B16 below show the efficacies of selected compounds of the general formula (I) according to tables I.1 to I.60 on various harmful plants and an application rate corresponding to 320 g/ha or lower that were obtained by the aforementioned trial method.”
(§4) Crop compatibilities were also scored correspondingly.
(§5) The effects observed are reported here on selected crop plants by comparison with the untreated controls (values in %).

[26] = tested on: Zea mays; test: as above; conditions: effect vs untreated controls
Description: as §3, with “plants.” for “plants. Tables B1 to B16 below show the efficacies of selected compounds of the general formula (I) according to tables I.1 to I.60 on various harmful plants and an application rate corresponding to 320 g/ha or lower that were obtained by the aforementioned trial method.”
as §4, §5

[27] = tested on: Stellaria media; test: Herbicidal action post-emergence (greenhouse pot trial); conditions: scored visually after about 3 weeks vs untreated controls
In short: as §1

[28] = tested on: Hordeum murinum; test: Herbicidal action pre-emergence (greenhouse pot trial); conditions: application rate 320 g/ha
Description: as §3

[29] = tested on: Echinochloa crus-galli; test: Herbicidal action post-emergence (greenhouse pot trial); conditions: application rate 20 g/ha, scored visually after about 3 weeks vs untreated controls
In short: as §1

Compound | Viola tricolor (Efficacy in %) ([1]; application rate 20 g/ha) | Matricaria inodora (Efficacy in %) ([2]; application rate 20 g/ha) | Abutilon theophrasti (Efficacy in %) ([3]; application rate 20 g/ha) | Polygonum convolvulus (Efficacy in %) ([5]; application rate 20 g/ha) | Pharbitis purpurea (Efficacy in %) ([6]; application rate 20 g/ha) | Amaranthus retroflexus (Efficacy in %) ([7]; application rate 20 g/ha) | Veronica persica (Efficacy in %) ([8]; application rate 20 g/ha) | Glycine max (Efficacy in %) ([9]; application rate 20 g/ha) | Triticum aestivum (Efficacy in %) ([10]; application rate 20 g/ha) | Oryza sativa (Efficacy in %) [11] | Viola tricolor (Efficacy in %) ([1]; application rate 80 g/ha) | Matricaria inodora (Efficacy in %) ([2]; application rate 80 g/ha) | Abutilon theophrasti (Efficacy in %) ([3]; application rate 80 g/ha) | Setaria viridis (Efficacy in %) ([4]; application rate 80 g/ha) | Polygonum convolvulus (Efficacy in %) ([5]; application rate 80 g/ha) | Pharbitis purpurea (Efficacy in %) ([6]; application rate 80 g/ha) | Echinochloa crus-galli (Efficacy in %) [13] | Viola tricolor (Efficacy in %) [14] | Matricaria inodora (Efficacy in %) [15] | Abutilon theophrasti (Efficacy in %) [16] | further results
Cc1c(C(F)(F)F)n(C)c(=O)n(-c2cc(SC(CC(C)C)C(=O)OCC3CCOC3)c(Cl)cc2F)c1=O (stereo not shown) [I.14-72] | 100% | 80% | 80% | 80% | 80% | 100% | 100% | 20% | 20% | 0% | – | – | – | – | – | – | – | – | – | – | Setaria viridis (Efficacy in %) ([4]; application rate 20 g/ha): 100%
Cc1c(C(F)(F)F)n(C)c(=O)n(-c2cc(SC(CC(C)C)C(=O)OCC3CCCCO3)c(Cl)cc2F)c1=O (stereo not shown) [I.14-91] | 100% | – | 100% | – | 80% | 100% | 100% | 20% | 20% | 0% | – | – | – | – | – | – | – | – | – | – | Zea mays (Efficacy in %) ([12]; application rate 20 g/ha): 20%
CC(Sc1cc(-n2c(=O)cc(C(F)(F)F)n(C)c2=O)c(F)cc1Cl)C(=O)NC1(C#N)CCSC1 (stereo not shown) [I.1-340] | – | – | – | – | – | – | – | 20% | 20% | 10% | 100% | 100% | 100% | 80% | 100% | 100% | 100% | 100% | 100% | 100% | Setaria viridis (Efficacy in %) [17]: 100%; Avena fatua (Efficacy in %) [18]: 80%; Stellaria media (Efficacy in %) [19]: 100%; Pharbitis purpurea (Efficacy in %) [20]: 100%; Alopecurus myosuroides (Efficacy in %) [21]: 90%; Lolium rigidum (Efficacy in %) [22]: 100%; Amaranthus retroflexus (Efficacy in %) [23]: 100%; Veronica persica (Efficacy in %) [24]: 100%; Zea mays (Efficacy in %) ([12]; application rate 80 g/ha): 0%; Glycine max (Efficacy in %) [25]: 20%; Zea mays (Efficacy in %) ([26]; application rate 80 g/ha): 0%
C=CCN(C(=O)C(C)Sc1cc(-n2c(=O)cc(C(F)(F)F)n(C)c2=O)c(F)cc1Cl)C(C)COC (stereo not shown) [I.1-335] | – | – | – | – | – | – | – | – | – | 10% | 100% | 100% | 100% | 100% | 100% | 100% | 100% | 100% | 100% | 100% | Stellaria media (Efficacy in %) ([27]; application rate 80 g/ha): 100%; Amaranthus retroflexus (Efficacy in %) ([7]; application rate 80 g/ha): 100%; Veronica persica (Efficacy in %) ([8]; application rate 80 g/ha): 100%; Hordeum murinum (Efficacy in %) [28]: 90%; Setaria viridis (Efficacy in %) [17]: 100%; Avena fatua (Efficacy in %) [18]: 100%; Stellaria media (Efficacy in %) [19]: 100%; Pharbitis purpurea (Efficacy in %) [20]: 100%; Alopecurus myosuroides (Efficacy in %) [21]: 90%; Lolium rigidum (Efficacy in %) [22]: 100%; Amaranthus retroflexus (Efficacy in %) [23]: 100%; Veronica persica (Efficacy in %) [24]: 100%; Triticum aestivum (Efficacy in %) ([10]; application rate 80 g/ha): 20%; Zea mays (Efficacy in %) ([12]; application rate 80 g/ha): 10%; Zea mays (Efficacy in %) ([26]; application rate 20 g/ha): 20%
CCC(Sc1cc(-n2c(=O)c(C)c(C(F)(F)F)n(C)c2=O)c(F)cc1Cl)C(=O)OCC1CCOC1 (stereo not shown) [I.12-72, Tetrahydrofuran-3-ylmethyl 2-({2-chloro-4-fluoro-5-[3,5-dimethyl-2,6-dioxo-4-(trifluoromethyl)-3,6-dihydropyrimidin-1(2H)-yl]phenyl}sulfanyl)butanoate] | 100% | 100% | 100% | 100% | – | 100% | 100% | – | 0% | 20% | – | – | – | – | – | – | – | – | – | – | Echinochloa crus-galli (Efficacy in %) [29]: 100%; Stellaria media (Efficacy in %) ([27]; application rate 20 g/ha): 100%; Glycine max (Efficacy in %) ([9]; application rate 5 g/ha): 20%; Zea mays (Efficacy in %) ([12]; application rate 5 g/ha): 0%
